{
  "source": "paper PMC10221314",
  "about": "(Pharmaceuticals, 2023)",
  "key": {"[1]": {"target": "T1, FXR (Homo sapiens, UniProt Q96RI1)", "T1 construct": "a fusion plasmid of Gal4 DBD-NR-LBD, which included PPARα, PPARβ, PPARγ, RXRα, RXRβ, RXRγ, LXRα, LXRβ, GPBAR, PXR, and FXR; expressed in transfected cells; host or cells: HEK-293T", "T1 sequence (Q96RI1 262-486 limits assumed)": "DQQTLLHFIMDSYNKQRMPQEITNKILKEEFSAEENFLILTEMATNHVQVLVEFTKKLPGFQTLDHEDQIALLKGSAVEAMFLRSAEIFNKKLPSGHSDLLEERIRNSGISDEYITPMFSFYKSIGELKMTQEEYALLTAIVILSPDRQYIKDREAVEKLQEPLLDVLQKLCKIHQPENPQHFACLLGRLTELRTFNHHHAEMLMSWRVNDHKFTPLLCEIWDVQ", "experiment": "Yeast one-hybrid assay of FXR antagonistic activity in HEK-293T cells", "format": "cell-based", "method": "Cell counting: HEK-293T cells in logarithmic growth phase were digested with 0.25% trypsin, collected, and centrifuged. The trypsin-containing medium was discarded, and 2 mL of fresh phenol red-free DMEM medium containing 5% fetal bovine serum was added. The cells were then mixed with the medium to prepare a cell suspension and counted on a cell counting plate.\nCell plating: A determined number of cells were taken from the cell suspension, diluted with phenol red-free DMEM medium containing 5% fetal bovine serum, and plated at a concentration of 10,000 cells per well (100 µL medium) in a 96-well plate. The plate was then incubated at 37 °C and 5% CO2 for 24 h.\nCell transfection: Fresh phenol red-free DMEM medium was taken in a sterile environment, and the previously extracted pFXR-Binding plasmid and PG4.35[luc2P-9XGA4UAS-Hygro] plasmid were added. The mixture was stirred and allowed to stand at 23 °C for 3 min. Then, a 3% amount of transfection reagent was added to the mixture, and it was allowed to stand at 23 °C for 15 min. The mixture was then added to the 96-well plate at a volume of 10 µL per well and incubated at 37 °C in a 5% CO2 environment for 24 h.\nThe OA derivatives were prepared as 10 mM DMSO stock solutions and further diluted in a concentration gradient, with 10 µL added to each well. The final concentrations of the derivatives ranged from 10 µM to 0.03 µM, with 7 concentration gradients using […] dilution. The test was set with 3 duplicated wells.\nAntagonism activity test: The firefly-Renilla Dual Fluorescence Assay Kit (Promega, #E2940, Madison, WI, USA) was used to measure the antagonism activity of the OA derivatives. Firstly, the firefly fluorescence reagent was added to the 96-well plate at a volume of 70 µL per well and shaken in darkness for 15 min. Then, the fluorescence intensity was measured at a wavelength of 645 ± 30 nm in a microplate reader (BioTek, Winooski, VT, USA). Next, the volume of Renilla reagent was added to the 96-well plate at a volume of 70 µL per well and shaken in darkness for 15 min. The fluorescence intensity was then measured at a wavelength of 525 ± 20 nm.\nData processing: The fluorescence data of firefly were divided by the fluorescence data of Renilla to remove errors, and the antagonism efficiency was calculated using the following formula: antagonism efficiency (%) = [1 − (FCompds. − FDMSO)/(FCDCA − FDMSO)] × 100%. In the formula, F represents fluorescence intensity. The antagonistic efficiency data were obtained as a concentration–effect curve using Graphpad Prism 8.0 software, and the corresponding IC50 value was calculated."}, "[2]": {"tested_on": "FXR downstream genes", "experiment": "mRNA expression of FXR downstream genes in HepG2 cells (qRT-PCR)", "format": "cell-based", "conditions": "10 μM and 1 μM, 24 h", "method": "Cells and liver tissue samples were subjected to RNA extraction and purification, followed by reverse transcription of equal amounts of total RNA into […] using a Transcriptor First Strand cDNA Synthesis Kit (Roche). The relative expression levels of the target gene were determined using TaqMan probe/primers with an ABI Q3 quantitative real-time PCR system, while GAPDH/Gapdh was utilized as an internal control for mRNA expression. The fold change in the expression of the target mRNA was calculated using Equation 2^−ΔΔCt.\n(A) Relative mRNA level of SHP; (B) Relative mRNA level of BSEP; (C) Relative mRNA level of CYP7A1; (D) Relative mRNA level of SREBP1c; (E) Relative mRNA level of PEPCK; (F) Expression level of G6Pase. HepG2 cells were seeded in a 6-well plate and treated with DMSO and varying concentrations of compound 10b for 24 h with or without 50 μM of 1. The mRNA levels of SHP, BSEP, CYP7A1, SREBP1c, PEPCK, and G6Pase were quantified and normalized to β-actin expression."}, "[3]": {"experiment": "Stability of compound 10b in mouse plasma at 37 °C (HPLC)", "format": "in vitro ADME", "parameters": "recovery at 6 h / recovery at 48 h: dose or concentration left out as unconfirmed", "conditions": "for Mass of 10b extracted from mouse plasma: theoretical mass 38.5 μg", "method": "3. Stability test of compound 10b\nTo preliminarily determine the stability of compound 10b in a biological environment, an in vitro experimental verification method was employed. The trace compound was dissolved in mouse plasma to simulate the biological environment.\nSamples were taken at different time intervals at 37 °C, and the content of the compound was determined by HPLC C18 analytical column. The peak area of the absorption at 220 nm was utilized for content calculation.\nThe standard curve shown in Fig. S1 can be plotted using the peak area and the mass of compound 10b in the corresponding volume of the solution. The relationship is y = 23.253x+ 100.67 (R2 = 0.9994), which meets linearity requirements and can be used for subsequent operations.\nFig. S1. The relationship curve between the absorption peak area and mass of compound 10b at 220 […]\nSubsequently, a mouse with a body weight of 20 g and blood volume of 1 mL was calculated based on the subsequent in vivo experiment’s dosage (100 mg·Kg-1).\nAssuming 100% absorption, the converted plasma drug concentration is 2 mg·mL -1.\nBased on the calculation, 0.5 mg of 10b was added to […] of mouse plasma to prepare a mixed solution. The plasma was then processed after 1h, 6h, 12 h, 24 h, and 48 h, respectively. The compound content in the sample was compared to the initial content with UV absorption and retention time (t = 6.5 min). […]\nsignificant decrease in the content of 10b was observed between 0 to 48 hours, […]"}, "[4]": {"conditions": "in the presence and absence of compound 1 (50 μM)"}},
  "note": "“Also recorded” adds a separate entry of the source.",
  "data": [
    {"smiles": "CC1(C)CCC2(C(=O)O)CCC3(C)C(C(OC(=O)CCC(NC(=O)OC(C)(C)C)C(=O)OC(C)(C)C)CC4C5(C)CCC(O)C(C)(C)C5CCC43C)C2C1", "note": "[Compound 10b, 3β-hydroxy-12β-(4′-((tert-butoxycarbonyl)amide)-5′-(tert-butoxy)-L-glutamte)oxy-13H-olean-28-oic acid]", "values": [
      {"measurement": "IC50", "setting": "[1]; HEK-293T cells, CDCA (50 μM) as agonist, mean ± SE of three independent tests", "result": "440 ± 150", "unit": "nM"},
      {"measurement": "times more potent than 10d", "setting": "[1]; ratio of IC50 values", "result": 8.3},
      {"measurement": "expression of G6Pase (mRNA)", "setting": "[2]", "result": "inhibited the expression"},
      {"measurement": "expression of PEPCK (mRNA)", "setting": "[2]", "result": "inhibited the expression"},
      {"measurement": "expression of BSEP (mRNA)", "setting": "[2]; [4]", "result": "inhibit"},
      {"measurement": "expression of CYP7A1 (mRNA)", "setting": "[2]; [4]", "result": "increasing the expression"},
      {"measurement": "expression of SHP (mRNA)", "setting": "[2]; [4]", "result": "inhibit"},
      {"measurement": "expression of SREBP1c (mRNA)", "setting": "[2]; [4]", "result": "inhibit"},
      {"measurement": "recovery at 0 h, 0.0025 mg/mL", "setting": "[3]; 0 h, read-out: Recovery rate", "result": 68, "unit": "%"},
      {"measurement": "Mass of 10b extracted from mouse plasma", "setting": "[3]; 0 h", "result": 26.2, "unit": "µg"},
      {"measurement": "content of 10b in mouse plasma (stability)", "setting": "[3]; 0 to 48 h", "result": "existed stably in mouse plasma; also recorded: remained almost unchanged"},
      {"measurement": "recovery at 1 h, 0.0025 mg/mL", "setting": "[3]; 1 h, read-out: Recovery rate", "result": 70.9, "unit": "%"},
      {"measurement": "Mass of 10b extracted from mouse plasma", "setting": "[3]; 1 h", "result": 27.3, "unit": "µg"},
      {"measurement": "recovery at 6 h", "setting": "[3]; 6 h, read-out: Recovery rate", "result": 75.8, "unit": "%"},
      {"measurement": "Mass of 10b extracted from mouse plasma", "setting": "[3]; 6 h", "result": 29.2, "unit": "µg"},
      {"measurement": "recovery at 12 h, 0.0025 mg/mL", "setting": "[3]; 12 h, read-out: Recovery rate", "result": 63.4, "unit": "%"},
      {"measurement": "Mass of 10b extracted from mouse plasma", "setting": "[3]; 12 h", "result": 24.4, "unit": "µg"},
      {"measurement": "recovery at 24 h, 0.0025 mg/mL", "setting": "[3]; 24 h, read-out: Recovery rate", "result": 68.5, "unit": "%"},
      {"measurement": "Mass of 10b extracted from mouse plasma", "setting": "[3]; 24 h", "result": 26.4, "unit": "µg"},
      {"measurement": "recovery at 48 h", "setting": "[3]; 48 h, read-out: Recovery rate", "result": 76.6, "unit": "%"},
      {"measurement": "Mass of 10b extracted from mouse plasma", "setting": "[3]; 48 h", "result": 29.5, "unit": "µg"}
    ]}
  ]
}
